≈ marks a conversion by molar mass, not a printed value. Like-named read-outs stand apart in the source and are kept apart here.
Columns and labels:
[1] = tested on: biofilm formed by gram positive, gram negative pathogen; test: Biofilm disruption activity, general statement; format: cell-based; conditions: embodiment statement
Procedure: (§1) Method: S. epidermidis ATCC 35984 was grown in Brain Heart Infusion Agar (BHIA) at 37° C. for 24 h. The loop full of bacterial culture was suspended in sterile water and adjusted the turbidity to 0.1 OD at 600 nm in UV—Visual spectrophotometer (approximately 1.5×10^8) and further diluted (100 times with sterile BHI broth), 100 μL of culture suspension was added into 96 well plate and plates were incubated at 37° C. for 48 h for biofilm formation. The biofilm was washed twice with sterile water to remove the planktonic cells. Then biofilm was treated with 100 μL of BHI broth suspended with various concentrations of compounds of the present disclosure, and plates were further incubated at 37° C. for 24 h. The minimum biofilm disruption concentration (MBDC) was determined by staining the biofilm with MTT reagent incubated plates at 37° C. for 2 h. The precipitate was dissolved in 100 μl of dimethyl sulfoxide (DMSO) and the absorbance was measured at 600 nm in multi well plate reader. The minimum biofilm disruption concentration was calculated as subtracting the MTT OD value of drug treated with 48 h growth control.
(§2) Method: E. coli ATCC BAA196 was grown in Brain Heart Infusion Agar (BHIA) at 37° C. for 24 h. The loop full of bacterial culture was suspended in sterile water and the turbidity to 0.1 OD at 600 nm in UV—Visual spectrophotometer (approximately 1.5×10^8) and further diluted (100 times with sterile BHI broth+1% glucose), 100 μL of culture suspension was added into 96 well plate and plates were incubated at 37° C. for 24 h for biofilm formation. The biofilm was washed twice with sterile water to remove the planktonic cells. Then biofilm was treated with 100 μL of BHI broth+1% glucose suspended with various concentrations of compounds of the present disclosure, and plates were further incubated at 37° C. for 24 h. The minimum biofilm disruption concentration (MBDC) was determined by staining the biofilm with MTT reagent incubated plates at 37° C. for 2 h, and the precipitate was dissolved in 100 μl of dimethyl sulfoxide (DMSO) and the absorbance was measured at 600 nm in multi well plate reader. The minimum biofilm disruption concentration was calculated by subtracting the MTT OD value of drug treated with 24 h growth control.

[2] = tested on: S. epidermidis ATCC 35984 biofilm; test: S. epidermidis biofilm disruption assay (MTT); format: cell-based; conditions: for EC50: Staphylococcus epidermidis, ATCC35984, read-out: Concentration (mg/ml) to disrupt 50% biofilm
Procedure: Materials: Brain heart infusion broth, S. epidermidis ATCC 35984, 96 well plates, Autoclave, Incubator, 0.05% MTT (3-(4,5-Dimethylthiazol-2-yl)-2,5-Diphenyltetrazolium Bromide) reagent prepared in water, Multiwell Plate Reader.
as §1

[3] = tested on: E. coli ATCC BAA196 biofilm; test: E. coli biofilm disruption assay (MTT); format: cell-based; conditions: for Minimum biofilm disruption concentration: 24 h biofilm, 24 h treatment, MTT
Procedure: Materials: Brain heart infusion broth+1% glucose, Escherichia coli ATCC BAA196, 96 wells plate, Autoclave, Incubator, MTT, Multiwell Plate Reader.
as §2

S. epidermidis S12-1 = test: MIC by micro broth dilution (CLSI); format: cell-based; conditions: Staphylococcus epidermidis, S121
HaCat cell line = test: Cytotoxicity MTT assay; format: cell-based, human
Procedure: Different dilutions of compounds of the present disclosure in DMSO were used for the MTT assay so that the final concentration of DMSO in the assay was <5%. […] After 3 h incubation, MTT was removed and 100 μl of DMSO was added. Absorbance was measured in an ELISA reader at 570 nm. The assay controls were (a) medium control (medium without cells), (b) negative control (medium with cells but without the experimental compound), (iii) positive control (medium with cells and with 50 μM camptothecin). The experiment was done in triplicates and the data plotted as viability of cells in percentage.

E. coli = test: MIC test, text summary against E. coli (strain not stated); format: cell-based
Procedure: (§3) Materials: Brain heart infusion broth, Bacterial and fungal cultures, 96 wells plate, Autoclave, Incubator. The microbial strains used in the validation study/testing were procured from MTCC (Chandigarh, India)—S. aureus (MTCC-6908), E. coli (MTCC-1687); NCIM (Pune, India)—E. aerogenes (NCIM-5139); ATCC (USA): S. aureus (ATCC-43300), S. epidermidis (ATCC-35984), P. aeruginosa (ATCC-27853), A. baumanii (ATCC-19606), K. pneumoniae (ATCC-13883), E. coli (ATCC-BAA196); CCARM (Korea)—Candida albicans (CCARM-14009), P. aeruginosa (CCARM-2161) and A. baumanii (CCARM-12001).
(§4) Method: MIC of present molecules were determined by micro broth dilution method as per the Clinical and Laboratory Standards Institute (CLSI) guidelines. Microbial strains were cultured in appropriate media [Brain Heart Infusion Agar (BHIA) for bacteria and Sabouraud dextrose broth (SDB) for Candida] at 37° C. for 24 hours. […] For inoculum, microbial culture turbidity was adjusted to 0.1 optical density (OD) at 600 nm in UV—Visual spectrophotometer (approximately 1.5×10^8 cells/ml) and further diluted (100 times with sterile media). Diluted culture suspension (100 μl) was added to each well except sterility control wells (column 12 of 96 well plate). […] The MIC of the test compounds were determined by observing the lowest concentration of test compound that prevented the visual bacterial growth.

MRSA = test: MIC test, text summary against MRSA; format: cell-based, S. aureus
Procedure: as §3, §4

[4] = tested on: P. aeruginosa (ATCC-27853); test: MIC by micro broth dilution (CLSI); format: cell-based
Procedure: as §3
(§5) Method: MIC of present molecules were determined by micro broth dilution method as per the Clinical and Laboratory Standards Institute (CLSI) guidelines. Microbial strains were cultured in appropriate media [Brain Heart Infusion Agar (BHIA) for bacteria and Sabouraud dextrose broth (SDB) for Candida] at 37° C. for 24 hours. […] For inoculum, microbial culture turbidity was adjusted to 0.1 optical density (OD) at 600 nm in UV—Visual spectrophotometer (approximately 1.5×10^8 cells/ml) and further diluted (100 times with sterile media). Diluted culture suspension (100 μl) was added to each well except sterility control wells (column 12 of 96 well plate). Column 11 of 96 well plate was used as growth control and vehicle control. The plates were incubated at 37° C. for 24 h. The MIC of the test compounds were determined by observing the lowest concentration of test compound that prevented the visual bacterial growth.

S. aureus (MTCC-6908) = test: MIC by micro broth dilution (CLSI); format: cell-based
Procedure: as §3, §5

[5] = tested on: S. epidermidis (ATCC-35984); test: MIC by micro broth dilution (CLSI); format: cell-based
Procedure: as §3, §5

[6] = tested on: K. pneumoniae [ATCC 1388]; test: MIC by micro broth dilution (CLSI); format: cell-based
Procedure: as §3, §5

E. coli (ATCC-BAA196) = test: MIC by micro broth dilution (CLSI); format: cell-based
Procedure: as §3, §5

E. coli (MTCC-1687) = test: MIC by micro broth dilution (CLSI); format: cell-based
Procedure: as §3, §5

S. aureus (ATCC-43300) = test: MIC by micro broth dilution (CLSI); format: cell-based
Procedure: as §3, §5

E. aerogenes (NCIM-5139) = test: MIC by micro broth dilution (CLSI); format: cell-based
Procedure: as §3, §5

[7] = tested on: Candida albicans (CCARM-14009); test: MIC by micro broth dilution (CLSI); format: cell-based; conditions: for MIC: C. albicans CCARM 14009
Procedure: as §3, §5

[8] = tested on: A. baumannii [ATCC 19606]; test: MIC by micro broth dilution (CLSI); format: cell-based
Procedure: as §3, §5

[9] = tested on: Bacterial and fungal cultures; test: MIC test, overall antimicrobial activity in words; format: cell-based; conditions: overall statement on MIC results
Procedure: as §3, §4

[10] = Water solubility as described; format: physicochemical
Gram negative pathogens = test: MIC test, against Gram negative pathogens; format: cell-based
Procedure: as §3, §4

Gram positive pathogen = test: MIC test, text summary against Gram positive pathogens; format: cell-based
Procedure: as §3, §4

[11] = 48 h biofilm, 24 h treatment, MTT
[12] = Staphylococcus aureus, MTCC6908, read-out: MIC
[13] = Staphylococcus epidermidis, ATCC35984, read-out: MIC
[14] = Candida albicans, CCARM14009, read-out: MIC

## CCCCCCCCCCCCSC[C@H](NC(C)=O)C(=O)O [SMP-001, N-Acetyl-S-dodecyl-L-cysteine]
[1]
  biofilm disruption activity: biofilm disruption activity
[2]
  anti-biofilm activity against S. epidermidis: destroy biofilm effectively
[2]; [11]
  EC50: 0.02 to 0.125 mg/mL (≈ 60.3 to 377 µM)
[3]
  Minimum biofilm disruption concentration: 0.5 to 2.0 mg/mL

## CCCCCCCCC/C=C\CCCCCCCCSC[C@@H](NC(C)=O)C(=O)N(CCCN)CCCN.Cl.Cl [SMP-047, (S,Z)-2-Acetamido-N,N-bis(3-aminopropyl)-3-(nonadec-9-en-1-ylthio)propanamide di-hydrochloride]
[1]
  biofilm disruption activity: biofilm disruption activity
[2]; [11]
  EC50: > 2 mg/mL
S. epidermidis S12-1
  MIC: 50 µg/mL
HaCat cell line; Homo sapiens, HaCaT, 48 h, MTT
  IC50: 200 to 400 µg/mL
HaCat cell line; compared with PHMB and chlorohexidine
  safety profile in HaCaT cell lines: better safety profile
E. coli
  activity towards resistant E. coli: potent
MRSA
  antibacterial activity against MRSA: potent antibacterial activity
[4]; Pseudomonas aeruginosa, ATCC27853, read-out: MIC
  MIC: > 256 µg/mL
S. aureus (MTCC-6908); [12]
  MIC: 6.25 µg/mL
[5]; [13]
  MIC: 6.25 µg/mL
[6]; Klebsiella pneumoniae, ATCC1388, read-out: MIC
  MIC: > 256 µg/mL
E. coli (ATCC-BAA196); Escherichia coli, ATCCBAA196, read-out: MIC
  MIC: 100 µg/mL
E. coli (MTCC-1687); Escherichia coli, MTCC1687, read-out: MIC
  MIC: 0.8 µg/mL
S. aureus (ATCC-43300); Staphylococcus aureus, ATCC43300, read-out: MIC
  MIC: 6.25 µg/mL
E. aerogenes (NCIM-5139); Klebsiella aerogenes, NCIM5139, read-out: MIC
  MIC: > 256 µg/mL
[7]
  antifungal activity against Candida species: potent antifungal activity
[7]; [14]
  MIC: 50 µg/mL
[8]; Acinetobacter baumannii, ATCC19606, read-out: MIC
  MIC: > 256 µg/mL
[9]
  antimicrobial / antibacterial activity: broad spectrum antibacterial activity
[10]
  water solubility: water soluble

## CCCCCCCCCCCCSC[C@@H](NC(C)=O)C(=O)N(CCCCNC(=O)[C@@H](N)CNC(=N)N)CCCNC(=O)[C@@H](N)CNC(=N)N.Cl [SMP-051]
[1]
  biofilm disruption activity: biofilm disruption activity
[2]; [11]
  Concentration (mg/ml) to disrupt 50% biofilm: >2 mg/mL
Gram negative pathogens
  activity against Gram negative pathogens: very efficient
Gram negative pathogens; against Gram negative pathogen
  improvement of antibacterial activity in comparison to SMP-002: 100-150 fold
Gram positive pathogen
  improvement of antibacterial activity in comparison to SMP-002: 10-20 fold
[3]
  disruption of E. coli biofilm: the best
  Minimum biofilm disruption concentration: 0.25 to 0.5 mg/mL
HaCat cell line; 48 h, MTT
  IC50 in HaCat cell line: ~25.0 µg/mL
[4]
  MIC: 16.0 µg/mL
S. aureus (MTCC-6908)
  MIC: 6.25 µg/mL
[5]
  MIC: 1.6 µg/mL
[6]
  MIC: 8.0 µg/mL
E. coli (ATCC-BAA196)
  MIC: 100 µg/mL
E. coli (MTCC-1687)
  MIC: 1.6 µg/mL
S. aureus (ATCC-43300)
  MIC: 6.25 µg/mL
E. aerogenes (NCIM-5139)
  MIC: 8.0 µg/mL
[7]
  MIC: 200 µg/mL
[8]
  MIC: 128.0 µg/mL
[9]
  antimicrobial / antibacterial activity: broad spectrum antibacterial activity

## CC(=O)N[C@@H](CS)C(=O)O [NAC, N-acetyl cysteine, reference compound]
[2]; [11]
  EC50: > 4 mg/mL

## N=C(NCCCCCCNC(=N)NC(=N)Nc1ccc(Cl)cc1)NC(=N)Nc1ccc(Cl)cc1 [Chlorohexidine, reference compound]
HaCat cell line; 48 h, MTT
  IC50 in HaCat cell line: ~200 µg/mL (≈ 396 µM)

## CCCCCCCCCCCCSC[C@@H](NC(C)=O)C(=O)N(CCCN)CCCN.Cl.Cl [SMP-002, (S)-2-Acetamido-N,N-bis(3-aminopropyl)-3-(dodecylthio)propanamide di-hydrochloride]
[1]
  biofilm disruption activity: biofilm disruption activity
[2]
  anti-biofilm activity against S. epidermidis: maintain anti-biofilm activity like SMP-001
[2]; [11]
  EC50: 0.01 mg/mL
S. epidermidis S12-1
  MIC: 25 µg/mL
[3]
  Minimum biofilm disruption concentration: 2 to 4 mg/mL
S. aureus (MTCC-6908); [12]
  MIC: 25 µg/mL
[5]; [13]
  MIC: 8 to 13 µg/mL
[7]; [14]
  MIC: 100 µg/mL
